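Five compound concentrations were applied to cells in 96-well plates for 48 hours; endpoints were derived by simple linear interpolation of the resulting dose-response curve. The concentration for 50% growth inhibition is given as GI50. TGI denotes the concentration required for complete inhibition of growth.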
Assays:
Test in all cases: NCI tumour cell line growth inhibition, 48 h
U251 CNS = test system: U251 CNS
MDA-MB-231 breast = test system: MDA-MB-231 breast
SK-MEL-2 melanoma = test system: SK-MEL-2 melanoma
OVCAR-5 ovarian = test system: OVCAR-5 ovarian
T-47D breast = test system: T-47D breast
LOX IMVI melanoma = test system: LOX IMVI melanoma
A549 NSCLC = test system: A549 NSCLC
HL-60(TB) leukemia = test system: HL-60(TB) leukemia
MDA-MB-435 = test system: MDA-MB-435
COLO 205 colon = test system: COLO 205 colon
SR leukemia = test system: SR leukemia
DU-145 prostate = test system: DU-145 prostate
CAKI-1 renal = test system: CAKI-1 renal
UO-31 renal = test system: UO-31 renal
NCI-H522 lung = test system: NCI-H522 lung
A498 renal = test system: A498 renal
HS 578T breast = test system: HS 578T breast
HCC-2998 colon = test system: HCC-2998 colon
BT-549 breast = test system: BT-549 breast
SF-539 CNS = test system: SF-539 CNS
OVCAR-4 ovarian = test system: OVCAR-4 ovarian
MCF7 breast = test system: MCF7 breast
HCT-15 colon = test system: HCT-15 colon
MOLT-4 leukemia = test system: MOLT-4 leukemia
786-0 renal = test system: 786-0 renal

CC1=C(C=O)C2=C(C)C3(CC3)[C@@](C)(O)C(=O)C2=C1
GI50 (U251 CNS): 0.17 µM
TGI (U251 CNS): 0.341 µM
GI50 (MDA-MB-231 breast): 0.194 µM
TGI (MDA-MB-231 breast): 0.367 µM
GI50 (SK-MEL-2 melanoma): 0.348 µM
TGI (SK-MEL-2 melanoma): 1.18 µM
GI50 (OVCAR-5 ovarian): 0.223 µM
TGI (OVCAR-5 ovarian): 0.533 µM
GI50 (T-47D breast): 0.199 µM
TGI (T-47D breast): 0.566 µM
GI50 (LOX IMVI melanoma): 0.153 µM
TGI (LOX IMVI melanoma): 0.295 µM
GI50 (A549 NSCLC): 0.276 µM
TGI (A549 NSCLC): 1.01 µM
GI50 (HL-60(TB) leukemia): 0.227 µM
TGI (HL-60(TB) leukemia): 0.703 µM
GI50 (MDA-MB-435): 0.213 µM
TGI (MDA-MB-435): 0.495 µM
GI50 (COLO 205 colon): 0.226 µM
TGI (COLO 205 colon): 0.459 µM
GI50 (SR leukemia): 0.212 µM
TGI (SR leukemia): 0.695 µM
GI50 (DU-145 prostate): 0.365 µM
TGI (DU-145 prostate): 1.31 µM
GI50 (CAKI-1 renal): 0.306 µM
TGI (CAKI-1 renal): 1.09 µM
GI50 (UO-31 renal): 0.17 µM
TGI (UO-31 renal): 0.359 µM
GI50 (NCI-H522 lung): 0.171 µM
TGI (NCI-H522 lung): 0.333 µM
GI50 (A498 renal): 0.996 µM
TGI (A498 renal): 2.46 µM
GI50 (HS 578T breast): 0.259 µM
TGI (HS 578T breast): 0.799 µM
GI50 (HCC-2998 colon): 0.179 µM
TGI (HCC-2998 colon): 0.338 µM
GI50 (BT-549 breast): 0.19 µM
TGI (BT-549 breast): 0.44 µM
GI50 (SF-539 CNS): 0.178 µM
TGI (SF-539 CNS): 0.359 µM
GI50 (OVCAR-4 ovarian): 0.407 µM
TGI (OVCAR-4 ovarian): 3.99 µM
GI50 (MCF7 breast): 0.181 µM
TGI (MCF7 breast): 0.576 µM
GI50 (HCT-15 colon): 0.18 µM
TGI (HCT-15 colon): 0.37 µM
GI50 (MOLT-4 leukemia): 0.218 µM
TGI (MOLT-4 leukemia): 0.977 µM
GI50 (786-0 renal): 0.209 µM
TGI (786-0 renal): 0.491 µM

— PubChem BioAssay (NCI)
